Experimental data as given in US20170224654A1, “PHARMACEUTICAL COMPOSITIONS AND METHODS FOR COUNTERING CHEMOTHERAPY INDUCED CARDIOTOXICITY” (Stem Cell Theranostics, Inc., priority 2016, published 2017).
Entries after “also recorded” stand apart in the source; their conditions may differ.

Target: T1, TOPOIIα (Homo sapiens, UniProt P11388)
T1 construct: purchased Inspiralis
Assay: kDNA decatenation assay
Assay type: biochemical
Conditions: not given

T1 sequence (P11388 whole entry): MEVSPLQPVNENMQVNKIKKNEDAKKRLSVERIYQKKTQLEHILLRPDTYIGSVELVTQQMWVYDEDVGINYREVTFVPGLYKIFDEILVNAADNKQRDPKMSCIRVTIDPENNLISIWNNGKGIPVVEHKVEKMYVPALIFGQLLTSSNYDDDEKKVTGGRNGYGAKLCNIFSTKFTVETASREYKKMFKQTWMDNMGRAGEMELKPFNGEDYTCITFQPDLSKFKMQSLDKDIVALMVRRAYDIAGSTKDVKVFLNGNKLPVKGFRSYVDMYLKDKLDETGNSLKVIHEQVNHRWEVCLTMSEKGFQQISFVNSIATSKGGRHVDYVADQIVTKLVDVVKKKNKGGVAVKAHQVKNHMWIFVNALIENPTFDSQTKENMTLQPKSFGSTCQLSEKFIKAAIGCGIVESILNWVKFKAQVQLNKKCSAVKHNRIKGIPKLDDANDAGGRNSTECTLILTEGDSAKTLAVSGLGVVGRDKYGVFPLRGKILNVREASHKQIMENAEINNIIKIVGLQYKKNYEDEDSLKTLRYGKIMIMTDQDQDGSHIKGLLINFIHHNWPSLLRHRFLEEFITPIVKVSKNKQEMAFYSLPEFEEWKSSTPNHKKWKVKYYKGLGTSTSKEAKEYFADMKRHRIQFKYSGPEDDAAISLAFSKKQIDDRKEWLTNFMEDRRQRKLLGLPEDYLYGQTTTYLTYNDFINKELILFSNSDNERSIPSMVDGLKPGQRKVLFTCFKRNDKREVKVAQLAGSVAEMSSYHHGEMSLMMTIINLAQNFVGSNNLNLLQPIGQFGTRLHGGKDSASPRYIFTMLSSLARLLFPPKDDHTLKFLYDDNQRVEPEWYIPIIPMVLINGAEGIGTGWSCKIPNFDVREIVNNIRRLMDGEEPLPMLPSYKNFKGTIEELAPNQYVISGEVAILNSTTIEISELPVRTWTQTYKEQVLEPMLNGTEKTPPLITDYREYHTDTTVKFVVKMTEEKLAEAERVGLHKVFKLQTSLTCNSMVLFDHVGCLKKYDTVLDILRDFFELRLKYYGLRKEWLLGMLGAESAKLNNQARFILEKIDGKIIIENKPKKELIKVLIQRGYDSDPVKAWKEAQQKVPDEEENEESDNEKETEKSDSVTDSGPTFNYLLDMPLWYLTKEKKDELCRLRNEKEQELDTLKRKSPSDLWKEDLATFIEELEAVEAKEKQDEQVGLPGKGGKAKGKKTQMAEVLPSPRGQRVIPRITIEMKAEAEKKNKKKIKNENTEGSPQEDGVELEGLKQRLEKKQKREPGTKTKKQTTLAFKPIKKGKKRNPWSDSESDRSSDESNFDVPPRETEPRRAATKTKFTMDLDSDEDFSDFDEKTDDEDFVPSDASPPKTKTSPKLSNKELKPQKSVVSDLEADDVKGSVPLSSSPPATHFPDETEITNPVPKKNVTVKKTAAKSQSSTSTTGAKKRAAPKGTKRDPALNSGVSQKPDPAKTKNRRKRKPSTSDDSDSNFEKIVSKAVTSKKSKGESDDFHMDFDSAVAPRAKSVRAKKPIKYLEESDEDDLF

SMILES	TOPOIIα Inhibition
COc1cc(-c2oc3cc(O)cc(O)c3c(=O)c2O)cc(OC)c1OC [Compound 34, 3′,4′,5′-O-trimethylmyricetin]	−
COc1cc(-c2oc3cc(O)cc(O)c3c(=O)c2O)cc(OC)c1O [Compound 33, 3′,5′-O-dimethylmyricetin]	−
O=c1cc(-c2cc(O)c(O)c(O)c2)oc2cc(O)ccc12 [Compound 6, 7,3′,4′,5′-tetrahydroxyflavone]	−
COc1cc(-c2oc3cc(O)cc(O)c3c(=O)c2O)cc(O)c1O [Compound 31, 3′-O-methylmyricetin]	−
COc1ccc2c(=O)c(O)c(-c3cc(OC)c(OC)c(OC)c3)oc2c1 [Compound 36, 7,3′,4′,5′-O-tetramethylrobinetin]	−
O=c1cc(-c2ccc(O)c(O)c2)oc2cc(O)cc(O)c12 [Compound 9, 5,7,3′,4′-tetrahydroxyflavone]	−
O=c1ccoc2cc(O)ccc12 [Compound 38, 7-hydroxy-4-chromone]	−
O=c1cc(-c2cc(O)c(O)c(O)c2)oc2ccccc12 [Compound 8, 3′,4′,5′-trihydroxyflavone]	−
COc1c(O)cc(-c2oc3cc(O)cc(O)c3c(=O)c2O)cc1O [Compound 32, 4′-O-methylmyricetin]	−
COc1ccc2c(=O)c(OC)c(-c3cc(OC)c(OC)c(OC)c3)oc2c1 [Compound 37, 3,7,3′,4′,5′-O-pentamethylrobinetin]	−
O=c1c(O)c(-c2ccc(O)c(O)c2)oc2ccccc12 [Compound 12, 3,3′,4′-trihydroxyflavone]	−
O=C1c2ccc(O)cc2OC(c2cc(O)c(O)c(O)c2)C1O (stereo in doubt) [Compound 30, dihydrorobinetin]	−
O=c1c(O)c(-c2ccc(O)cc2)oc2cc(O)ccc12 [Compound 10, 3,7,4′-trihydroxyflavone]	−
COc1cc(-c2oc3cc(O)ccc3c(=O)c2O)cc(OC)c1OC [Compound 35, 3′,4′,5′-O-trimethylrobinetin]	−
O=c1cc(-c2ccc(O)c(O)c2)oc2cc(O)ccc12 [Compound 11, 7,3′,4′-trihydroxyflavone]	−

Same assay, conditions: DHM: even at >200 μM

SMILES	TOPOIIα enzymatic inhibition (in words)
O=c1c(O)c(-c2cc(O)c(O)c(O)c2)oc2cc(O)ccc12 [Compound 2, 3,7,3′,4′,5′-pentahydroxyflavone]	high level of inhibition
O=C1c2c(O)cc(O)cc2O[C@H](c2cc(O)c(O)c(O)c2)[C@H]1O [dihydromyricetin]	did not inhibit
O=C1c2ccc(O)cc2OC(c2cc(O)c(O)c(O)c2)C1O (stereo in doubt) [Compound 30, dihydrorobinetin]	no inhibitory activity

Test system: TOPOII enzymes (TOPOIIα and TOPOIIβ)
Assay: kDNA decatenation assay, TOPOIIα and TOPOIIβ jointly
Assay type: biochemical
Conditions: discussion of Table 1
Protocol: 200 ng of kinetoplast DNA (kDNA) was incubated with one enzymatic unit of TOPOIIα or TOPOIIβ enzyme (Inspiralis) and with various concentrations of MYR or DEX at 37° C. for 30 min. The reaction was then separated on 1% agarose gel for visualization of decatenated DNA (bottom band). The efficiency of catalytic inhibition was quantified by measuring the relative intensity of the band.

SMILES	TOPOII (TOPOIIα and TOPOIIβ) inhibition (in words)
O=c1ccoc2ccccc12 [chromone]	Nor did either compound confer TOPOIIβ or a inhibition
O=c1cc(-c2cc(O)c(O)c(O)c2)oc2cc(O)cc(O)c12 [Compound 3, 5,7,3′,4′,5′-pentahydroxyflavone]	TOPOII inhibition
COc1c(O)cc(-c2oc3cc(O)cc(O)c3c(=O)c2O)cc1O [4′-O-methylmyricetin]	without TOPOII inhibition
COc1cc(-c2oc3cc(O)cc(O)c3c(=O)c2O)cc(OC)c1OC [3′,4′,5′-O-trimethylmyricetin]	entirely failed to display cardioprotection or TOPOII inhibition
COc1cc(-c2oc3cc(O)ccc3c(=O)c2O)cc(OC)c1OC [3′,4′,5′-O-trimethylrobinetin]	entirely failed to display cardioprotection or TOPOII inhibition
COc1cc(-c2oc3cc(O)cc(O)c3c(=O)c2O)cc(OC)c1O [3′,5′-O-dimethylmyricetin]	neither cardioprotection nor TOPOIIα and TOPOIIβ inhibition
O=c1cc(-c2cc(O)c(O)c(O)c2)oc2cc(O)ccc12 [7,3′,4′,5′-tetrahydroxyflavone]	did not inhibit TOPOII enzymes
COc1ccc2c(=O)c(OC)c(-c3cc(OC)c(OC)c(OC)c3)oc2c1 [3,7,3′,4′,5′-O-pentamethylrobinetin]	entirely failed to display cardioprotection or TOPOII inhibition
COc1ccc2c(=O)c(O)c(-c3cc(OC)c(OC)c(OC)c3)oc2c1 [7,3′,4′,5′-O-tetramethylrobinetin]	entirely failed to display cardioprotection or TOPOII inhibition

Target: T2, TOPOIIβ (Homo sapiens, UniProt Q02880)
T2 construct: purchased Inspiralis
Assay: kDNA decatenation assay
Assay type: biochemical
Conditions: not given

T2 sequence (Q02880 whole entry): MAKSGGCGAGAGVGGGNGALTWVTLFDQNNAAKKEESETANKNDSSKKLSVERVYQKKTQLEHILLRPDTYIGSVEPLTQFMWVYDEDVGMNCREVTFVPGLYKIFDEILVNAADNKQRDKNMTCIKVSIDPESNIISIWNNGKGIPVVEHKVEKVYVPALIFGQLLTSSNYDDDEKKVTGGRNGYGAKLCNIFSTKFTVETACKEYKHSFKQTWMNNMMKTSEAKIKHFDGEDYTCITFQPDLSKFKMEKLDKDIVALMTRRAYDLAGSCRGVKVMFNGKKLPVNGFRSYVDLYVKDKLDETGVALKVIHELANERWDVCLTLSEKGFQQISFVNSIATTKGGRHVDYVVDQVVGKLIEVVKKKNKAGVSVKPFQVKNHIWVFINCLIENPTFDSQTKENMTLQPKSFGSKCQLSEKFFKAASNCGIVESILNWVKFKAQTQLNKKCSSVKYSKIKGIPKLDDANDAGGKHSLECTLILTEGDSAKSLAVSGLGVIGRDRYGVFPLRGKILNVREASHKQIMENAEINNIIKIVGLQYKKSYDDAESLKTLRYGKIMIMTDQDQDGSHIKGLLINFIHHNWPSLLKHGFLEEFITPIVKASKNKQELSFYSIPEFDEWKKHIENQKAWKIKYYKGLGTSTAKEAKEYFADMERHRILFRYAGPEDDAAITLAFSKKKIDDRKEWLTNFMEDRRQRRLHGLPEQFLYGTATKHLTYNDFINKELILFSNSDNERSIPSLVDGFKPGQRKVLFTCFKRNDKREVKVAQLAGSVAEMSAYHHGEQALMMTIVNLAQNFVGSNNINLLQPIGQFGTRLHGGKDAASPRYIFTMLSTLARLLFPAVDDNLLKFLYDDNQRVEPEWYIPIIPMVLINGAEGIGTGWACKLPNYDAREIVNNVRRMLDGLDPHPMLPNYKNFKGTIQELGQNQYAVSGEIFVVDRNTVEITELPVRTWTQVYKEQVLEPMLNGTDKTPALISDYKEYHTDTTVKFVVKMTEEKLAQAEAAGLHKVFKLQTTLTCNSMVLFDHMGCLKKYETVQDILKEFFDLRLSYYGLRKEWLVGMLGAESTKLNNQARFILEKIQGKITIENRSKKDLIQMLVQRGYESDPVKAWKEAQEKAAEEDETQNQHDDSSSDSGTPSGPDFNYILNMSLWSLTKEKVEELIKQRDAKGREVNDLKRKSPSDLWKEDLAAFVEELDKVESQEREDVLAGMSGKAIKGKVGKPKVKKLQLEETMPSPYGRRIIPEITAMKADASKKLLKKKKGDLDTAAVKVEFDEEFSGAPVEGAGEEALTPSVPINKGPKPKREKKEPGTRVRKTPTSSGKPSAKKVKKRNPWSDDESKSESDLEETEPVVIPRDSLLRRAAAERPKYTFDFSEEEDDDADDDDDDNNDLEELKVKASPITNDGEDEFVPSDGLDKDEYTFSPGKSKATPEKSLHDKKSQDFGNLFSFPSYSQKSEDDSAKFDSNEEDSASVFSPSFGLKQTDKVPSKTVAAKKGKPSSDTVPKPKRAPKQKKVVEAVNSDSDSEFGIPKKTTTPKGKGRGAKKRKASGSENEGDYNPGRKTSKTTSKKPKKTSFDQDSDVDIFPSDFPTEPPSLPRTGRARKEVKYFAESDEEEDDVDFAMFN

SMILES	TOPOIIβ Inhibition
COc1cc(-c2oc3cc(O)cc(O)c3c(=O)c2O)cc(OC)c1OC [Compound 34, 3′,4′,5′-O-trimethylmyricetin]	−
COc1cc(-c2oc3cc(O)cc(O)c3c(=O)c2O)cc(OC)c1O [Compound 33, 3′,5′-O-dimethylmyricetin]	−
O=c1cc(-c2cc(O)c(O)c(O)c2)oc2cc(O)ccc12 [Compound 6, 7,3′,4′,5′-tetrahydroxyflavone]	−
COc1cc(-c2oc3cc(O)cc(O)c3c(=O)c2O)cc(O)c1O [Compound 31, 3′-O-methylmyricetin]	−
COc1ccc2c(=O)c(O)c(-c3cc(OC)c(OC)c(OC)c3)oc2c1 [Compound 36, 7,3′,4′,5′-O-tetramethylrobinetin]	−
O=c1cc(-c2ccc(O)c(O)c2)oc2cc(O)cc(O)c12 [Compound 9, 5,7,3′,4′-tetrahydroxyflavone]	−
O=c1ccoc2cc(O)ccc12 [Compound 38, 7-hydroxy-4-chromone]	−
O=c1cc(-c2cc(O)c(O)c(O)c2)oc2ccccc12 [Compound 8, 3′,4′,5′-trihydroxyflavone]	−
COc1c(O)cc(-c2oc3cc(O)cc(O)c3c(=O)c2O)cc1O [Compound 32, 4′-O-methylmyricetin]	−
COc1ccc2c(=O)c(OC)c(-c3cc(OC)c(OC)c(OC)c3)oc2c1 [Compound 37, 3,7,3′,4′,5′-O-pentamethylrobinetin]	−
O=c1c(O)c(-c2ccc(O)c(O)c2)oc2ccccc12 [Compound 12, 3,3′,4′-trihydroxyflavone]	−
O=C1c2ccc(O)cc2OC(c2cc(O)c(O)c(O)c2)C1O (stereo in doubt) [Compound 30, dihydrorobinetin]	−
O=c1c(O)c(-c2ccc(O)cc2)oc2cc(O)ccc12 [Compound 10, 3,7,4′-trihydroxyflavone]	−
COc1cc(-c2oc3cc(O)ccc3c(=O)c2O)cc(OC)c1OC [Compound 35, 3′,4′,5′-O-trimethylrobinetin]	−
O=c1cc(-c2ccc(O)c(O)c2)oc2cc(O)ccc12 [Compound 11, 7,3′,4′-trihydroxyflavone]	−

Same assay, conditions: DHM: even at >200 μM

SMILES	TOPOIIβ enzymatic inhibition (in words)
O=c1c(O)c(-c2cc(O)c(O)c(O)c2)oc2cc(O)ccc12 [Compound 2, 3,7,3′,4′,5′-pentahydroxyflavone]	high level of inhibition
O=C1c2c(O)cc(O)cc2O[C@H](c2cc(O)c(O)c(O)c2)[C@H]1O [dihydromyricetin]	did not inhibit
O=C1c2ccc(O)cc2OC(c2cc(O)c(O)c(O)c2)C1O (stereo in doubt) [Compound 30, dihydrorobinetin]	no inhibitory activity

Test system: Human iPSC-derived cardiomyocytes
Assay: Cytotoxicity of MYR analogs to cardiomyocytes
Conditions: 100 μM

SMILES	Toxicity
O=c1c(O)c(-c2cc(O)c(O)c(O)c2)oc2cc(O)ccc12 [Compound 2, 3,7,3′,4′,5′-pentahydroxyflavone]	−
O=c1cc(-c2cc(O)c(O)c(O)c2)oc2cc(O)ccc12 [Compound 6, 7,3′,4′,5′-tetrahydroxyflavone]	−
O=c1cc(-c2ccc(O)cc2)oc2ccccc12 [Compound 17, 4′-hydroxyflavone]	−
O=c1cc(-c2cc(O)c(O)c(O)c2)oc2ccccc12 [Compound 8, 3′,4′,5′-trihydroxyflavone]	−
O=c1ccoc2ccccc12 [Compound 29, chromone]	−

Same assay, conditions: at or below 100 μM as stated

SMILES	cytotoxicity / toxic effects to cardiomyocytes (in words)
O=c1c(O)c(-c2ccc(O)cc2)oc2cc(O)ccc12 [Compound 10, 3,7,4′-trihydroxyflavone]	exhibited toxic effects at concentrations below 100 μM

Same assay, conditions: at or below 100 μM as stated; listed as tricetin

SMILES	cytotoxicity / toxic effects to cardiomyocytes (in words)
O=c1cc(-c2cc(O)c(O)c(O)c2)oc2cc(O)cc(O)c12 [Compound 3, 5,7,3′,4′,5′-pentahydroxyflavone]	exhibits some toxic effects at concentrations less than 100 μM; also recorded: low level of cytotoxicity at 100 μM

Test system: Doxorubicin treated human iPSC-derived cardiomyocytes
Assay: iPSC-CM protection of MYR analogs against doxorubicin
Assay type: cell-based
Conditions: Homo sapiens, iPSC-CM; initial screen at 10 μM or 100 μM; read-out: iPSC-CM protection Max Effect (%)

SMILES	Emax
O=c1cc(-c2ccc(O)cc2)oc2ccccc12 [Compound 17, 4′-hydroxyflavone]	< 30%

Same assay, conditions: discussion of Table 1

SMILES	cardioprotection (in words)
O=c1ccoc2ccccc12 [chromone]	no positive effect in cardiac protection
O=c1cc(-c2cc(O)c(O)c(O)c2)oc2cc(O)cc(O)c12 [Compound 3, 5,7,3′,4′,5′-pentahydroxyflavone]	displayed cardioprotection
COc1c(O)cc(-c2oc3cc(O)cc(O)c3c(=O)c2O)cc1O [4′-O-methylmyricetin]	conferred cardioprotection
COc1cc(-c2oc3cc(O)cc(O)c3c(=O)c2O)cc(OC)c1OC [3′,4′,5′-O-trimethylmyricetin]	entirely failed to display cardioprotection or TOPOII inhibition
COc1cc(-c2oc3cc(O)ccc3c(=O)c2O)cc(OC)c1OC [3′,4′,5′-O-trimethylrobinetin]	entirely failed to display cardioprotection or TOPOII inhibition
COc1cc(-c2oc3cc(O)cc(O)c3c(=O)c2O)cc(OC)c1O [3′,5′-O-dimethylmyricetin]	neither cardioprotection nor TOPOIIα and TOPOIIβ inhibition
O=c1cc(-c2cc(O)c(O)c(O)c2)oc2cc(O)ccc12 [7,3′,4′,5′-tetrahydroxyflavone]	displayed cardioprotection
COc1ccc2c(=O)c(OC)c(-c3cc(OC)c(OC)c(OC)c3)oc2c1 [3,7,3′,4′,5′-O-pentamethylrobinetin]	entirely failed to display cardioprotection or TOPOII inhibition
COc1ccc2c(=O)c(O)c(-c3cc(OC)c(OC)c(OC)c3)oc2c1 [7,3′,4′,5′-O-tetramethylrobinetin]	entirely failed to display cardioprotection or TOPOII inhibition
